Experiments:
Rab10 pThr73 [1] = experiment: Rab10 Thr73 dephosphorylation (immunoblot) in WT MEFs; format: cell-based, mouse; details: Mus musculus, read-out: pRab10 inhibited in WT MEFs
Outline: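 Wild-type mouse embryonic fibroblasts in 6-well plates were treated with LRRK2 PROTACs, with two biological replicates per condition. Cells were washed in PBS and lysed on ice in buffer containing phosphatase and protease inhibitors plus 1% Triton X-100, then clarified at 15,000 g. Rab10 Thr73 phosphorylation was measured by quantitative immunoblotting of 15 to 20 μg protein on 4-12% Bis-Tris gels.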

Rab10 pThr73 [2] = experiment: Rab10 Thr73 dephosphorylation (immunoblot) in LRRK2^G2019S MEFs; format: cell-based; details: Mus musculus, read-out: pRab10 inhibited in LRRK2^G2019S MEFs
Rab10 pThr73 [3] = experiment: as above; format: cell-based, mouse; details: Mus musculus, read-out: pRab10 inhibited in LRRK2^G2019S MEFs

| Structure (SMILES) | inhibition at 0.033 µM (Rab10 pThr73 [1]; 33 nM/4 h treatment) [%] | inhibition at 0.033 µM (Rab10 pThr73 [1]; 33 nM/24 h treatment) [%] | inhibition at 1 µM (Rab10 pThr73 [1]; 1 μM/4 h treatment) [%] | inhibition at 1 µM (Rab10 pThr73 [1]; 1 μM/24 h treatment) [%] | inhibition at 0.033 µM (Rab10 pThr73 [2]; 33 nM/4 h treatment) [%] | inhibition at 0.033 µM (Rab10 pThr73 [2]; 33 nM/24 h treatment) [%] | inhibition at 1 µM (Rab10 pThr73 [3]; 1 μM/4 h treatment) [%] | inhibition at 1 µM (Rab10 pThr73 [3]; 1 μM/24 h treatment) [%] |
| --- | --- | --- | --- | --- | --- | --- | --- | --- |
| CNc1nc(Nc2ccc(C(=O)N3CCN(CCCSC(C)(C)[C@H](NC(=O)C4(F)CC4)C(=O)N4C[C@H](O)C[C@H]4C(=O)NCc4ccc(-c5scnc5C)c(F)c4)CC3)cc2OC)ncc1Cl [XL01122, (2S,4R)-1-((R)-3-((3-(4-(4-((5-chloro-4-(methylamino)pyrimidin-2-yl)amino)-3-methoxybenzoyl)piperazin-1-yl)propyl)thio)-2-(1-fluorocyclopropane-1-carboxamido)-3-methylbutanoyl)-N-(3-fluoro-4-(4-methylthiazol-5-yl)benzyl)-4-hydroxypyrrolidine-2-carboxamide] | 0 to 40 | 0 to 60 | 10 to 95 | 30 to 100 | 0 to 70 | 0 to 90 | 20 to 100 | 10 to 100 |
| CNc1nc(Nc2ccc(C(=O)N3CCN(CCCOc4cc(-c5scnc5C)ccc4CNC(=O)[C@@H]4C[C@@H](O)CN4C(=O)[C@@H](NC(=O)C4(F)CC4)C(C)(C)C)CC3)cc2OC)ncc1Cl [SD13, (2S,4R)—N-(2-(3-(4-(4-((5-chloro-4-(methylamino)pyrimidin-2-yl)amino)-3-methoxybenzoyl)piperazin-1-yl)propoxy)-4-(4-methylthiazol-5-yl)benzyl)-1-((S)-2-(1-fluorocyclopropane-1-carboxamido)-3,3-dimethylbutanoyl)-4-hydroxypyrrolidine-2-carboxamide] | 0 to 25 | 10 to 40 | 18 to 90 | 30 to 90 | 0 to 60 | 0 to 70 | 30 to 95 | 30 to 100 |
| CNc1nc(Nc2ccc(C(=O)N3CCN(Cc4cccc(CSC(C)(C)[C@H](NC(=O)C5(F)CC5)C(=O)N5C[C@H](O)C[C@H]5C(=O)NCc5ccc(-c6scnc6C)cc5)c4)CC3)cc2OC)ncc1Cl [XL01111, (2S,4R)-1-((R)-3-((3-((4-(4-((5-chloro-4-(methylamino)pyrimidin-2-yl)amino)-3-methoxybenzoyl)piperazin-1-yl)methyl)benzyl)thio)-2-(1-fluorocyclopropane-1-carboxamido)-3-methylbutanoyl)-4-hydroxy-N-(4-(4-methylthiazol-5-yl)benzyl)pyrrolidine-2-carboxamide] | 0 to 40 | 0 to 60 | 10 to 95 | 30 to 100 | 0 to 70 | 0 to 90 | 20 to 100 | 10 to 100 |
| CNc1nc(Nc2ccc(C(=O)N3CCN(CCOCCOCCSC(C)(C)[C@H](NC(=O)C4(F)CC4)C(=O)N4C[C@H](O)C[C@H]4C(=O)NCc4ccc(-c5scnc5C)c(F)c4)CC3)cc2OC)ncc1Cl [XL01123, (2S,4R)-1-((R)-3-((2-(2-(2-(4-(4-f((5-chloro-4-(methylamino)pyrimidin-2-yl)amino)-3-methoxybenzoyl)piperazin-1-yl)ethoxyl)ethoxy)ethyl)thio)-2-(1-fluorocyclopropane-1-carboxamido)-3-methylbutanoyl)-N-(3-fluoro-4-(4-methylthiazol-5-yl)benzyl)-4-hydroxypyrrolidine-2-carboxamide] | 0 to 40 | 0 to 60 | 10 to 95 | 30 to 100 | 0 to 70 | 0 to 90 | 20 to 100 | 10 to 100 |
| CNc1nc(Nc2ccc(C(=O)N3CCN(C[C@H]4CC[C@@H](CSC(C)(C)[C@H](NC(=O)C5(F)CC5)C(=O)N5C[C@H](O)CC5C(=O)NCc5ccc(-c6scnc6C)cc5F)CC4)CC3)cc2OC)ncc1Cl (stereo partly drawn) [XL02058, (2S,4R)-1-((R)-3-((((1s,4S)-4-((4-(4-((5-chloro-4-(methylamino)pyrimidin-2-yl)amino)-3-methoxybenzoyl)piperazin-1-yl)methyl)cyclohexyl)methyl)thio)-2-(1-fluorocyclopropane-1-carboxamido)-3-methylbutanoyl)-N-(2-fluoro-4-(4-methylthiazol-5-yl)benzyl)-4-hydroxypyrrolidine-2-carboxamide] | 0 to 70 | 0 to 80 | 80 to 100 | 80 to 100 | 0 to 90 | 30 to 90 | 10 to 100 | 80 to 100 |
| CNc1nc(Nc2ccc(C(=O)N3CCN(CCOCCOCCOc4cccc(C(=O)c5csc(C6CCCN6C(=O)[C@@H](NC(=O)[C@H](C)NC)C6CCCCC6)n5)c4)CC3)cc2OC)ncc1Cl (stereo partly drawn) [SD113, (S)—N—((S)-2-((S)-2-(4-(3-(2-(2-(2-(4-(4-((5-chloro-4-(methylamino)pyrimidin-2-yl)amino)-3-methoxybenzoyl)piperazin-1-yl)ethoxy)ethoxy)ethoxy)benzoyl)thiazol-2-yl)pyrrolidin-1-yl)-1-cyclohexyl-2-oxoethyl)-2-(methylamino)propenamide] | 0 to 25 | 10 to 40 | 18 to 90 | 30 to 90 | 0 to 60 | 0 to 70 | 30 to 95 | 30 to 100 |
| CNc1nc(Nc2ccc(C(=O)N3CCN(CCOCCOCCOCCOCCOc4cccc(C(=O)c5csc(C6CCCN6C(=O)[C@@H](NC(=O)[C@H](C)NC)C6CCCCC6)n5)c4)CC3)cc2OC)ncc1Cl (stereo partly drawn) [SD112, (S)—N—((S)-2-((S)-2-(4-(3-((14-(4-(4-((5-chloro-4-(methylamino)pyrimidin-2-yl)amino)-3-methoxybenzoyl)piperazin-1-yl)-3,6,9,12-tetraoxatetradecyl)oxy)benzoyl)thiazol-2-yl)pyrrolidin-1-yl)-1-cyclohexyl-2-oxoethyl)-2-(methylamino)propenamide] | 0 to 25 | 10 to 40 | 18 to 90 | 30 to 90 | 0 to 60 | 0 to 70 | 30 to 95 | 30 to 100 |
| CNc1nc(Nc2ccc(C(=O)N3CCN(CCOCCOCCN4CCN(c5ccc6c(c5)C(=O)N(C5CCC(=O)NC5=O)C6=O)CC4)CC3)cc2OC)ncc1Cl (stereo not shown) [SD10, 5-(4-(2-(2-(2-(4-(4-((5-chloro-4-(methylamino)pyrimidin-2-yl)amino)-3-methoxybenzoyl)piperazin-1-yl)ethoxy)ethoxy)ethyl)piperazin-1-yl)-2-(2,6-dioxopiperidin-3-yl)isoindoline-1,3-dione] | 0 to 25 | 10 to 40 | 18 to 90 | 30 to 90 | 0 to 60 | 0 to 70 | 30 to 95 | 30 to 100 |
| CNc1nc(Nc2ccc(C(=O)N3CCN(CCOCCOCCSC(C)(C)[C@H](NC(=O)C4(F)CC4)C(=O)N4C[C@H](O)C[C@H]4C(=O)N[C@@H](C)c4ccc(-c5scnc5C)cc4)CC3)cc2OC)ncc1Cl [XL01119, (2S,4R)-1-((R)-3-((2-(2-(2-(4-(4-((5-chloro-4-(methylamino)pyrimidin-2-yl)amino)-3-methoxybenzoyl)piperazin-1-yl)ethoxy)ethoxy)ethyl)thio)-2-(1-fluorocyclopropane-1-carboxamido)-3-methylbutanoyl)-4-hydroxy-N—((S)-1-(4-(4-methylthiazol-5-yl)phenyl)ethyl)pyrrolidine-2-carboxamide] | 0 to 40 | 0 to 60 | 10 to 95 | 30 to 100 | 0 to 70 | 0 to 90 | 20 to 100 | 10 to 100 |
| CNc1nc(Nc2ccc(C(=O)N3CCN(C[C@@H]4CCC[C@H](CSC(C)(C)[C@H](NC(=O)C5(F)CC5)C(=O)N5C[C@H](O)C[C@H]5C(=O)NCc5ccc(-c6scnc6C)cc5)C4)CC3)cc2OC)ncc1Cl [XL02063, (2S,4R)-1-((R)-3-((((1S,3R)-3-((4-(4-((5-chloro-4-(methylamino)pyrimidin-2-yl)amino)-3-methoxybenzoyl)piperazin-1-yl)methyl)cyclohexyl)methyl)thio)-2-(1-fluorocyclopropane-1-carboxamido)-3-methylbutanoyl)-4-hydroxy-N-(4-(4-methylthiazol-5-yl)benzyl)pyrrolidine-2-carboxamide] | 0 to 70 | 0 to 80 | 80 to 100 | 80 to 100 | 0 to 90 | 30 to 90 | 10 to 100 | 80 to 100 |
| CNc1nc(Nc2ccc(C(=O)N3CCN(C[C@H](C)SC(C)(C)[C@H](NC(=O)C4(F)CC4)C(=O)N4C[C@H](O)C[C@H]4C(=O)NCc4ccc(-c5scnc5C)cc4)CC3)cc2OC)ncc1Cl [XL01140, (2S,4R)-1-((R)-3-(((S)-1-(4-(4-((5-chloro-4-(methylamino)pyrimidin-2-yl)amino)-3-methoxybenzoyl)piperazin-1-yl)propan-2-yl)thio)-2-(1-fluorocyclopropane-1-carboxamido)-3-methylbutanoyl)-4-hydroxy-N-(4-(4-methylthiazol-5-yl)benzyl)pyrrolidine-2-carboxamide] | 0 to 40 | 0 to 60 | 10 to 95 | 30 to 100 | 0 to 70 | 0 to 90 | 20 to 100 | 10 to 100 |

From US20260001875A1, “AMINOPYRIMIDINYL DERIVATIVES FOR THE TREATMENT OF PARKINSON'S DISEASE” (UNIVERSITY OF DUNDEE, priority 2022, published 2026)
